Structures are written as SMILES.

In general, inhibition refers to the relative decrease from the control value, in per cent. In general, IC50 refers to the concentration that gives 50% inhibition.

Holding throughout (type): cell-based
One assay deals with T1, mOREG (Mus musculus, UniProt Q920P2).
T1 sequence (Q920P2 1-313): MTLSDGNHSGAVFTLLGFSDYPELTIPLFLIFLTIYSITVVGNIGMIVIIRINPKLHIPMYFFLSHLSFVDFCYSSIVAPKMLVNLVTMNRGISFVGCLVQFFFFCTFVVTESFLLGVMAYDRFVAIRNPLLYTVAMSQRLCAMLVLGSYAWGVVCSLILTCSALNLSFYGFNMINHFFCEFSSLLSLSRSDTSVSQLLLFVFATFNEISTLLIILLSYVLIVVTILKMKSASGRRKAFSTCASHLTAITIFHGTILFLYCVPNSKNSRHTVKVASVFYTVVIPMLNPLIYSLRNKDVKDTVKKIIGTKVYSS
Kind of assay: Ca2+-imaging, control receptor mOREG. The following applies: compound applied at 4 μM; read-out: Percent Inhibition mOREG. The procedure, abridged:
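Fluorescent Ca2+ responses (ex 485/em 525 nm) measured in real time after odorant application, with small compounds transferred into the HBSS odorant solutions beforehand. Cells were seeded on poly-D-lysine 2 days ahead and dye-loaded (Ca-4, 1.5 hr, room temperature); controls were HBSS buffer and ligand.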

For assay [1], the target named is T2, serotonin receptor (5HT3) (Mus musculus, UniProt P23979).
T2 construct: Full-length cDNAs for mosquito (Anopheles gambiae) odorant receptor; expressed in transfected cells
T2 sequence (P23979 24-489): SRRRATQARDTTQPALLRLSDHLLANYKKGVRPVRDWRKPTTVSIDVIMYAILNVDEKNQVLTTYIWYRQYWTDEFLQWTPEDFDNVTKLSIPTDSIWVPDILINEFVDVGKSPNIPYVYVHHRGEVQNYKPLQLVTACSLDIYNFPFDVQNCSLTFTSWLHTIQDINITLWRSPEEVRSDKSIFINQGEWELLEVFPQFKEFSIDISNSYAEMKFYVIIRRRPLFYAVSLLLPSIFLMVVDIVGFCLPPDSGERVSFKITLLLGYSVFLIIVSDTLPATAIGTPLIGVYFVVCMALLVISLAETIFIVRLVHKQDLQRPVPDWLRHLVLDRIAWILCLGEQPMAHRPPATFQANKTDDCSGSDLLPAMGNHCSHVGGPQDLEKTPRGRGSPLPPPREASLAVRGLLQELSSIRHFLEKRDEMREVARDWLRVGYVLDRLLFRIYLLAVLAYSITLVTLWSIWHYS
In words: Ca2+-imaging of stable Flip-In T-Rex cell line 5HT3. The note with it: compound applied at 4 μM; read-out: Percent Inhibition 5HT3. The procedure, abridged:
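Calcium responses were read on an FDSS6000 (485 nm excitation, 525 nm emission) after Ca-4 loading for 1.5 h at room temperature. Cells were tetracycline-induced Flp-In T-REx lines stably carrying fly Or47a/Or83b or mouse 5HT3, plated 2 days ahead; compounds were co-delivered in HBSS odorant solution.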

The target of another assay is OR28/OR7 (Anopheles gambiae, UniProt A0A1S4GFY3+Q7QCC7). In words: Ca2+-imaging of stable HEK293T cell line OR28/OR7. Put shortly: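 Cells were HEK293T stably expressing mouse TRPM8 or a ligand-specific Anopheles OR plus OR7. Compounds were delivered in HBSS odorant solution.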
OR28/OR7, sequence (A0A1S4GFY3 entry or part of it): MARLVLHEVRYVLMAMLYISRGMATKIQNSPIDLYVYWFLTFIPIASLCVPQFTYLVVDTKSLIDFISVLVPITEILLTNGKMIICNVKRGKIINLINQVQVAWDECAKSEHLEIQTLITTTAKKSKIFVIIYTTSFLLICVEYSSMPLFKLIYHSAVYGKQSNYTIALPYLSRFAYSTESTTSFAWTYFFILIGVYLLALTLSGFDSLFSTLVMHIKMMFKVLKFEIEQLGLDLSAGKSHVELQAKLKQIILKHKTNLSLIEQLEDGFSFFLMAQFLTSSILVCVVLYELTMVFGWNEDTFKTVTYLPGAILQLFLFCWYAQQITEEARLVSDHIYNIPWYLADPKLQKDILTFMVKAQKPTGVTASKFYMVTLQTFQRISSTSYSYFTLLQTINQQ
OR28/OR7, sequence (Q7QCC7 whole entry): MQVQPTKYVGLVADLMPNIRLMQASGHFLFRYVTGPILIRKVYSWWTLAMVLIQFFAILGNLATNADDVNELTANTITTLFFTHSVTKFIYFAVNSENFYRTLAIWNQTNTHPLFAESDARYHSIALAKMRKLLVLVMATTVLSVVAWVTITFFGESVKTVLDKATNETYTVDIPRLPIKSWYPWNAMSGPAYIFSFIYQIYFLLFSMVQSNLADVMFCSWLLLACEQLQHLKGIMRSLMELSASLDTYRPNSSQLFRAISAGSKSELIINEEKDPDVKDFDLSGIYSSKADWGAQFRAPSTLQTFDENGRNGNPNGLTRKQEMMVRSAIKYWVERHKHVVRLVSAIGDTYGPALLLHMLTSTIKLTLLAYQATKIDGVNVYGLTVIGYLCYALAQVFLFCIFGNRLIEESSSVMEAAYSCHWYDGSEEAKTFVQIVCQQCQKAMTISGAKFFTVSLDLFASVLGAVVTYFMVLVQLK

As for `COc1ccc(N2CCN(C(=O)C3CC=CCC3C(=O)NC(c3ccccc3)c3ccccn3)CC2)cc1` (stereo not shown) [RU-0026507], the inhibition at 4 µM was less than 25% at mOREG; 26 to 50% in assay [1]; greater than 75% on OR28/OR7 (HEK-293T, compound applied at 4 μM, read-out: Percent Inhibition OR28 OR7). The IC50 on OR28/OR7 (Table B, read-out: IC50 OR28) was greater than 1000 nM.

Source of the values: patent US20130324522A1, “INSECT ODORANT RECEPTOR ANTAGONISTS” (THE ROCKEFELLER UNIVERSITY, priority 2010, published 2013).
